Reference: patent publication US20230285570A1, “THERAPEUTICALLY USEFUL CURE-PRO MOLECULES FOR E3 LIGASE MEDIATED DEGRADATION OF PROTEINS, AND METHODS OF MAKING AND USING THEM” (CORNELL UNIVERSITY, priority 2020, published 2023)
Entries after “also recorded” stand apart in the source; their conditions may differ.

How the values were obtained:
Assay type in all cases: cell-based
c-MYC [1] = molecular target: T1, c-MYC (Homo sapiens, UniProt P01106); assay: CURE-PRO-mediated c-MYC degradation in MCF7 cells, Western blot; design: endogenous in cells
Protocol: (§1) Namalwa, Ramosm HeLa, MCF7, or HT29 HCT116 cells (2.5-3×10^6) were treated for 24 hours with the indicated compounds solubilized in DMSO. The cells were washed in ice-cold PBS and were then lysed in RIPA lysis buffer (150 mM NaCl, 5 mM EDTA, 1% NP-40, 0.5% sodium deoxycholate, 0.1% SDS, 50 mM Tris, pH 8.0.) with Roche protease inhibitor complete cocktail and phosphatase inhibitors (10 mM sodium fluoride, 10 mM sodium pyrophosphate, 1 mM sodium orthovanadate and 20 mM β-glycerophosphate). The total protein concentrations were determined by Bradford Protein Assay (Pierce) and 10-20 μg of protein was loaded onto 4-15% Tris-Glycine gradient gels (Biorad). After standard gel electrophoresis, the separated proteins were transferred to PVDF membrane by wet transfer. The immunoblots were then blocked for 1 hour in 5% skim milk in TBST or 5% BSA in TBST, according to manufacturer's instructions, before an overnight incubation at 4° C. with indicated antibodies and membranes. Membranes were then incubated with the appropriate horseradish peroxidase-conjugated secondary antibodies (1:5,000 dilution) for 1 h at room temperature and the bands were visualized using the Clarity Max Western ECL Substrate (Biorad) and the ChemiDoc Imaging System (Biorad). Signal was detected with ECL Western Blotting Substrate (Pierce) and X-ray film processed with a Konica SRX-101 X-ray film processor or captured by Bio-Rad's Chemidoc Imaging system.
MCF7 cells (3×10^6) were treated for 24 h with the compounds solubilized in DMSO. Compounds were added at 100 nM-10 μM each. Standardized protein samples were electrophoresed and imaged as described in the immunoblotting section above. c-MYC monomer, MYC-E33 (FIG. 99) (a 10058-F4 derivatives comprising boronic acid linkers), and VHL ligands, 8304 and 8305 (VH-298 derivatives comprising diol linkers) were combined in a 1:1 ratio.

c-MYC [2] = molecular target: T1, c-MYC; assay: CURE-PRO-mediated c-MYC degradation in HCT1116 cells, Western blot or WES; design: HT29 cells (2.5×10^6) were treated for 24 h with the compounds solubilized in DMSO; endogenous in cells; host or cells: HT29; conditions: 1:1 with MDM2 ligand 8310, HCT1116, 24 h, 10 nM-10 μM each
c-MYC [3] = molecular target: T1, c-MYC; assay: Summary of C-MYC degradation by CURE-PRO pairs, estimated from Western Blot or WES; design: endogenous in cells; host or cells: HT29; conditions: Table 11, aromatic 1,2-diol MYC ligand + 8310
Summary of the method: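 Degradation read-out from immunoblot with ECL, or WES capillary electrophoresis with HRP detection, of RIPA lysates. Cells (Namalwa, Ramos, HeLa, MCF7, HT29 or HCT116) were exposed to DMSO-solubilized compounds for 24 h; a check mark marks 30% to 70% or higher degradation.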

c-MYC [4] = molecular target: T1, c-MYC; assay: CURE-PRO-mediated c-MYC degradation in HT29 cells, Western blot; design: endogenous in cells; host or cells: HT29
Protocol: as §1
HT29 cells (2.5×10^6) were treated for 24 h with the compounds solubilized in DMSO. Compounds were added at 10 nM-10 μM each, as indicated in the description of the figures. Standardized protein samples were electrophoresed and imaged as described in the immunoblotting section above. c-MYC monomers (10058-F4 derivatives comprising catechol linkers), and CRBN ligands, 8048 and 8049 (pomalidomide derivatives comprising boronic acid linkers) combined in a 1:1 ratio.
HT29 cells (2.5×10^6) were treated for 24 h with the compounds solubilized in DMSO. Compounds were added at 100 nM-10 μM each.
(§2) HT29 cells (2.5×10^6) were treated for 24 h with the compounds solubilized in DMSO. Compounds were added at 100 nM-10 μM each. Standardized protein samples were electrophoresed and imaged as described in the immunoblotting section above. c-MYC monomer, MYC-E1, (a 10058-F4 derivative comprising boronic acid linkers), and CRBN ligands, 8046, 8047 and 8066 (pomalidomide derivatives comprising diol linkers) combined in a 1:1 ratio.
as §2, with “monomers, MYC-E6 (FIG. 90), MYC-E10 (FIG. 91), and MYC-E16 (FIG. 92) (10074-G5 derivatives” for “monomer, MYC-E1, (a 10058-F4 derivative”
(§3) HT29 cells (2.5×10^6) were treated for 24 h with the compounds solubilized in DMSO. Compounds were added at 10 nM-10 μM each. Standardized protein samples were electrophoresed and imaged as described in the immunoblotting section above. c-MYC monomer, MYC-N16 (FIG. 93) (10074-G5 derivatives comprising diol linkers), and VHL ligands, 8297 and 8298 (VH-298 derivatives comprising boronic acid linkers) were combined in a 1:1 ratio.
as §3, with “monomers, MYC-E7” for “monomer, MYC-N16”, “96), MYC-E10 (FIG. 97), and MYC-E17 (FIG. 98),” for “93)”, “boronic acid” for “diol”, “diol” for “boronic acid”

c-MYC [5] = molecular target: T1, c-MYC; assay: CURE-PRO-mediated c-MYC degradation in HCT1116 cells, Western blot or WES; design: endogenous in cells; host or cells: HT29; conditions: 1:1 with MDM2 ligand 8312, HCT1116, 24 h, 10 nM-10 μM each
Protocol: as §1
WES Simple analysis was performed on WES system (ProteinSimple-Biotechne) according to the manufacturer's instructions. Total protein concentrations of cell lysates were determined by the Pierce BCA kit (Thermo Fisher). 3 μL of 0.3 μg/μL of the protein lysate was loaded onto a 12- to 230-kDa WES assay plate (ProteinSimple) where 300 nL sample was withdrawn through a capillary, subjected to electrophoretic separation of proteins by size, and followed by the simultaneous, HRP-based detection of proteins using the Anti-Rabbit Detection Module (Proteinsimple: #DM-001). The electropherograms were checked then the automatic peak detection was manually corrected if it was required.
HCT1116 cells (2.5×10^6) were treated for 24 h with the compounds solubilized in DMSO. Compounds were added at 10 nM-10 μM each. Standardized protein samples were electrophoresed and imaged as described in the immunoblotting or WES (Proteinsimple) sections above. c-MYC monomers, MYC-N20 (FIG. 100, a 10074-G5 derivative comprising diol linkers), and MYC-N10 (FIG. 101), MYC-N6 (FIG. 102), and MYC-N9 (FIG. 103) (10058-F4 derivatives comprising diol linkers), and MDM2 ligands, 8310 and 8312 (Nutlin 3a derivatives comprising boronic acid linkers) were combined in a 1:1 ratio.
HCT1116 cells (2.5×10^6) were treated for 24 h with the compounds solubilized in DMSO. Compounds were added at 1 μM-10 μM each.

T1 sequence (P01106 whole entry): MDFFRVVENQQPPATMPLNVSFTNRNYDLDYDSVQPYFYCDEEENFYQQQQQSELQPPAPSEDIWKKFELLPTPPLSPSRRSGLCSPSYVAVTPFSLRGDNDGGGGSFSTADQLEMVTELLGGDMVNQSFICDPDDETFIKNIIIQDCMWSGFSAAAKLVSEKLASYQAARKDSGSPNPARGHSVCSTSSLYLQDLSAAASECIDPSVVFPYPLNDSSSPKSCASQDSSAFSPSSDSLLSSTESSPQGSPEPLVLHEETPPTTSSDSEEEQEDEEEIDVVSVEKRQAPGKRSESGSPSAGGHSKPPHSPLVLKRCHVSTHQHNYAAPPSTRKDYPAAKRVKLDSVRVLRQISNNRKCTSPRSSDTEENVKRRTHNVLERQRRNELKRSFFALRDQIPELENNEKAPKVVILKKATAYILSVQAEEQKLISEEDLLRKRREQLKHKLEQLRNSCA

c-MYC degradation (c-MYC [1]; 1:1 with VHL ligand 8304, MCF7, 24 h, 100 nM-10 μM each) | c-MYC degradation (c-MYC [1]; 1:1 with VHL ligand 8305, MCF7, 24 h, 100 nM-10 μM each) | c-MYC degradation (c-MYC [1]; c-MYC monomer alone, MCF7, 24 h, 100 nM-10 μM) | c-MYC degradation (c-MYC [4]; c-MYC monomer alone, HT29, 24 h, 10 nM-10 μM) | SMILES | c-MYC degradation (c-MYC [2]) | Degradation of C-MYC, combination with MDM2 ligand 8310 (c-MYC [3]) | c-MYC degradation (c-MYC [4]; 1:1 with CRBN ligand 8048, HT29, 24 h, 10 nM-10 μM each) | c-MYC degradation (c-MYC [4]; 1:1 with CRBN ligand 8049, HT29, 24 h, 10 nM-10 μM each) | c-MYC degradation (c-MYC [5])
caused partial degradation of c-MYC | no loss of c-MYC protein was observed | no loss of c-MYC protein was observed |  | CCc1ccc(/C=C2\SC(=O)N(CCNC(=O)c3ccc(B(O)O)cc3)C2=O)cc1 [MYC-E33] |  |  |  |  | 
 |  |  | there is no degradation of c-MYC | CCc1ccc(/C=C2\SC(=O)N(CCOCCNC(=O)c3ccc(O)c(O)c3)C2=O)cc1 [MYC-N9] | caused degradation of c-MYC at higher concentrations | √ (A black check mark indicates efficacy of 30% to 70% or higher protein degradation) | some degradation is noted; also recorded: caused degradation of c-MYC | produces greater c-MYC degradation than 8048; also recorded: caused degradation of c-MYC | caused degradation of c-MYC at higher concentrations
